According to ChEMBL document CHEMBL3045064, “3D-QSAR of amino-substituted pyrido[3,2B]pyrazinones as PDE-5 inhibitors” (Med Chem Res, 2012):
pIC50: −log10 of the molar value.

Biological target: cGMP-specific 3',5'-cyclic phosphodiesterase (Homo sapiens, UniProt O76074)
Assay: Inhibition of PDE5 (unknown origin)

SMILES | pIC50
COc1ccc(-c2ccc3nc(NCC4CCOCC4)c(=O)n(CC4CCCCC4)c3n2)cn1 | 8.64
COc1ccc(-c2ccc3nc(NCC(=O)N(C)C)c(=O)n(CC4CCCCC4)c3n2)cn1 | 7.84
O=c1c(NCCN2CCOCC2)nc2ccc(-c3ccc(O)nc3)nc2n1CC1CCCCC1 | 6.27
COc1ccc(-c2ccc3nc(NCCN4CCOCC4)c(=O)n(CC4CCCCC4)c3n2)cn1 | 7.57
O=c1c(NCC2CCOCC2)nc2ccc(-c3ccncc3)nc2n1CC1CCCCC1 | 7.47
Cc1noc(C)c1-c1ccc2nc(NCCN3CCOCC3)c(=O)n(CC3CCCCC3)c2n1 | 7.44
O=c1c(NCC2CCOCC2)nc2ccc(-c3cnc(O)nc3)nc2n1CC1CCCCC1 | 8.54
